Values of other authors in patent publication CN101129366A, “一种尼莫地平药物组合物及其制备方法” (Beijing Zhonghaikang Medical Technology Development Co Ltd, priority 2007, dated 2008).

Conditions: drug substance

COCCOC(=O)C1=C(C)NC(C)=C(C(=O)OC(C)C)C1c1cccc([N+](=O)[O-])c1 (stereo not shown) [尼莫地平]
solubility in acetone and chloroform (acetone, chloroform): 易溶
solubility in ethanol (ethanol): 溶解
solubility in diethyl ether (ether): 微溶
solubility in water (water): 不溶
